In ChEMBL document CHEMBL1201862, “PubChem BioAssay data set” (2004):
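Protocol summary: plate cells (96-well), add compound at 5 concentrations, incubate 48 h, interpolate endpoints linearly. GI50: concentration for 50% inhibition of growth.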 Activity calls are given as the source filed them. Cut-off read from the data, not from the text of the source: active = GI50 up to about 1.1 µM and inactive = higher.

Assays:
Assay in all cases: DTP human tumour cell line panel, 48 h
NCI-H522 = system: NCI-H522
HCC 2998 = system: HCC 2998
MCF7 = system: MCF7
PC-3 = system: PC-3
UO-31 = system: UO-31
U-251 = system: U-251
RPMI-8226 = system: RPMI-8226
ACHN = system: ACHN
Malme-3M = system: Malme-3M
MDA-MB-231 = system: MDA-MB-231
NCI-H460 = system: NCI-H460
OVCAR-4 = system: OVCAR-4
IGROV-1 = system: IGROV-1
EKVX = system: EKVX
OVCAR-3 = system: OVCAR-3
COLO 205 = system: COLO 205
CCRF-CEM = system: CCRF-CEM
SN12C = system: SN12C
SK-MEL-2 = system: SK-MEL-2

Row | Compound | GI50 (NCI-H522) | GI50 (HCC 2998) | GI50 (MCF7) | GI50 (PC-3) | GI50 (UO-31) | GI50 (U-251) | GI50 (RPMI-8226) | GI50 (ACHN) | GI50 (Malme-3M) | GI50 (MDA-MB-231) | GI50 (NCI-H460) | GI50 (OVCAR-4) | GI50 (IGROV-1) | GI50 (EKVX) | GI50 (OVCAR-3) | GI50 (COLO 205) | GI50 (CCRF-CEM) | GI50 (SN12C) | GI50 (SK-MEL-2)
1 | NC(=O)/C=C/NC(=O)/C=N\O | > 100 µM (inactive) | > 100 µM (inactive) | > 100 µM (inactive) | > 100 µM (inactive) | > 100 µM (inactive) | > 100 µM (inactive) | > 100 µM (inactive) | > 100 µM (inactive) | > 100 µM (inactive) | > 100 µM (inactive) | > 100 µM (inactive) | > 100 µM (inactive) | > 100 µM (inactive) | > 100 µM (inactive) | > 100 µM (inactive) | > 100 µM (inactive) | > 100 µM (inactive) | > 100 µM (inactive) | –
2 | OC1(c2ccccc2)CSC2=Nc3ccccc3C3CCN1N23 (stereo not drawn) | 20 µM (inactive) | 26.9 µM (inactive) | 15.6 µM (inactive) | 15.3 µM (inactive) | 15.4 µM (inactive) | 14.9 µM (inactive) | – | 19 µM (inactive) | 22.4 µM (inactive) | 15.5 µM (inactive) | 13.4 µM (inactive) | 23.1 µM (inactive) | 13.3 µM (inactive) | 3.89 µM (inactive) | 26.7 µM (inactive) | 17.7 µM (inactive) | 26.2 µM (inactive) | 23.5 µM (inactive) | 15.8 µM (inactive)
3 | CCn1cc(C(=O)O)c(=O)c2cc(F)c(N3CCN(CN4C(=O)/C(=N\NC(=O)c5ccncc5)c5cc(Cl)ccc54)CC3)cc21 | 21.8 µM (inactive) | 36 µM (inactive) | 28.2 µM (inactive) | 38.5 µM (inactive) | 4.83 µM (inactive) | 33 µM (inactive) | – | 37.3 µM (inactive) | 86.1 µM (inactive) | 52.7 µM (inactive) | 52.4 µM (inactive) | 36.9 µM (inactive) | 18.3 µM (inactive) | 32.6 µM (inactive) | 39.1 µM (inactive) | 52.7 µM (inactive) | – | 69.5 µM (inactive) | 23 µM (inactive)
4 | CN(C)c1cccc2c1C(=O)C=CC21c2ccc(N(C)C)c3c(N(C)C)ccc(c23)C(c2ccccc2)C1c1ccccc1 (stereo not drawn) | 21.3 µM (inactive) | 17.6 µM (inactive) | 17.9 µM (inactive) | 9.71 µM (inactive) | 4.8 µM (inactive) | 10.5 µM (inactive) | 15.9 µM (inactive) | 13.1 µM (inactive) | 18 µM (inactive) | 8.75 µM (inactive) | 24 µM (inactive) | 3.85 µM (inactive) | 12 µM (inactive) | 22.2 µM (inactive) | 12.6 µM (inactive) | 11.3 µM (inactive) | 4.86 µM (inactive) | 10.8 µM (inactive) | –
5 | CCOC(=O)/C=C(\C(=O)OCC)n1ccc(=O)n(CC(=O)OCC)c1=O | 1 µM (active) | 16 µM (inactive) | 3.16 µM (inactive) | 4.74 µM (inactive) | 6.73 µM (inactive) | 6.25 µM (inactive) | – | 1.64 µM (inactive) | 2.48 µM (inactive) | 6.12 µM (inactive) | 15.6 µM (inactive) | 3.66 µM (inactive) | 6.82 µM (inactive) | 6.59 µM (inactive) | 3.96 µM (inactive) | 1.26 µM (inactive) | 0.592 µM (active) | 4.84 µM (inactive) | 14 µM (inactive)
6 | COC(=O)[C@]1(C)CCC[C@]2(C)[C@@H](CCC(=O)C(C)C)[C@]3(C=O)O[C@@H]3C[C@H]21 | 16.8 µM (inactive) | 58.6 µM (inactive) | 33.4 µM (inactive) | 28.4 µM (inactive) | 18.7 µM (inactive) | 33.7 µM (inactive) | – | 27 µM (inactive) | 53.1 µM (inactive) | 52 µM (inactive) | > 100 µM (inactive) | 24.7 µM (inactive) | – | 44.8 µM (inactive) | 33.4 µM (inactive) | 35 µM (inactive) | 32.2 µM (inactive) | 30.6 µM (inactive) | 34.1 µM (inactive)
7 | C=C1C/C(=C/C)C(=O)O[C@@H]2CCN3CC=C(COC(=O)[C@]1(C)O)[C@H]23 [SENECIPHYLLINE] | > 100 µM (inactive) | > 100 µM (inactive) | > 100 µM (inactive) | > 100 µM (inactive) | > 100 µM (inactive) | > 100 µM (inactive) | > 100 µM (inactive) | > 100 µM (inactive) | – | > 100 µM (inactive) | 84.9 µM (inactive) | > 100 µM (inactive) | > 100 µM (inactive) | > 100 µM (inactive) | > 100 µM (inactive) | > 100 µM (inactive) | > 100 µM (inactive) | – | > 100 µM (inactive)
